Laboratory results published in article PMC5687811 (ACS chemical neuroscience, 2016).
Several values for one entry are separate records, joined by “and”; a condition that tells them apart may be missing. Equal entries are not always repeated. Entries after “also recorded” stand apart in the source; their conditions may differ. Where two headings read alike, the source gives them in different places. [ ]: non-standard residue; d: D form. dPhe(4-I) = N[C@H](Cc1ccc(I)cc1)C(=O)O

Tests used:
[1] = tested on: mouse (m)MC3R; conditions: HEK293 cells, cited from earlier work
[2] = ref [13],[24]; cited from earlier work
[3] = tested on: females, ovariectomized or estradiol treated; conditions: cited from earlier work; for effect of ovariectomy or estradiol treatment on food intake after ligand: ref [13],[21],[34]
[4] = tested on: male and female rats; conditions: ICV, ref [5] Maranon and coworkers in 2014, cited from earlier work
[5] = tested on: mMC4R; conditions: antagonist/inverse agonist, ref [40],[41], cited from earlier work
[6] = tested on: female and male rats; conditions: ref [13]; cited from earlier work
[7] = tested on: MC3R and MC4R knockout mice; conditions: cited from earlier work
[8] = tested on: wild type female and male littermate mice; assay: Cumulative food intake after ICV administration, TSE metabolic cages; format: in vivo, mice (mixed C57BL/6J and 129/Sv)
[9] = tested on: male and female mice; format: in vivo, mice (mixed C57BL/6J and 129/Sv); conditions: 5 nmol ICV, conventional cages, pilot
[10] = tested on: wild type female and male littermate mice; assay: Respiratory exchange ratio; format: in vivo, mice (mixed C57BL/6J and 129/Sv)
[11] = tested on: wild type female and male littermate mice; assay: Energy expenditure after ICV administration, TSE metabolic cages; format: in vivo, mice (mixed C57BL/6J and 129/Sv)
[12] = tested on: wild type female and male littermate mice; assay: Locomotor activity; format: in vivo, mice (mixed C57BL/6J and 129/Sv); conditions: for total ambulatory activity (cumulative beam breaks): ICV
[13] = Solubility / precipitation of SKY2-23-7; format: physicochemical
[14] = tested on: mMC4R; conditions: HEK293 cells, ref [22],[23] (Doering et. al.), cited from earlier work
[15] = tested on: mMC1R; conditions: read-out: EC50 at mMC1R; agonist; ref [22],[23]; cited from earlier work
[16] = tested on: mMC5R; conditions: read-out: EC50 at mMC5R; agonist; ref [22],[23]; cited from earlier work

Question: Which “partial agonism at mMC3R” value ([1]; at 1 µM, ref [22] (Doering et. al.)) does the source give for SHU9119 here?
Answer: The value was 50%.

Question: What about the energy expenditure [2] of the same substance?
Answer: Its energy expenditure is “decrease energy expenditure”.

Question: What about the “effect of ovariectomy or estradiol treatment on food intake after ligand” value [3] of the same substance?
Answer: Its value is “minimal effects on food intake”.

Question: And the blood pressure ([4]; female rats)?
Answer: Its blood pressure is “no effect on blood pressure”.

Question: And the blood pressure ([4]; male rats)?
Answer: Its blood pressure is “significantly reduced blood pressure”.

Question: Which results are given for “AGRP: endogenous MC3R antagonist and MC4R antagonist/inverse agonist AGRP (SSRRCVRLHESCLGQQVPCCDPCATCYCRFFNAFCYCRKLGTAMNPCSRT; UniProt O00253 83-132, looked up)”?
Answer: pA2 at mMC4R [5]: 9.4; Ki ([5]; read-out: Ki at mMC4R): 0.4 to 2.5 nM; energy expenditure, female versus male [6]: reduces energy expenditure in female rats more than in male rats; food intake [6]: food intake is unaffected; energy expenditure [2]: decrease energy expenditure; respiratory exchange ratio (RER) [2]: increase respiratory exchange ratio; effect of ovariectomy on ligand-dependent energy expenditure ([3]; females, ref [13]): ovariectomy can blunt; effect of ovariectomy or estradiol treatment on food intake after ligand [3]: minimal effects on food intake; food intake ([7]; ICV, MC3R and MC4R male knockout mice, ref [8],[12]): increased food intake

Question: With Ac-W[dPhe(4-I)]RW-NH2 [SKY2-23-7] as the substance, how does the cumulative food intake ([8]; female, 2.5 nmol ICV, 6–24 hours post-administration) read?
Answer: Its cumulative food intake is “significant increase in food intake”.

Question: And the “cumulative food intake, dose response” value ([8]; female, 2.5 nmol, 1 nmol, and 0.5 nmol ICV)?
Answer: Its value is “A dose response pattern is observed”.

Question: And the cumulative food intake ([8]; female, 5 nmol ICV)?
Answer: Its cumulative food intake is “no significant effect”.

Question: What about the cumulative food intake ([8]; female, 7.5 nmol ICV) of the same substance?
Answer: Its cumulative food intake is “no significant effect”.

Question: And the cumulative food intake ([8]; male, 2.5 nmol ICV)?
Answer: Its cumulative food intake is “no significant effect”.

Question: And the cumulative food intake ([8]; male, 7.5 nmol ICV, 2–24 hours post-administration)?
Answer: Its cumulative food intake is “significant increase in food intake”.

Question: What about the “cumulative food intake, dose response” value ([8]; male, ICV, metabolic cages, p<0.0001) of the same substance?
Answer: The value was “dose dependent increase in food intake”.

Question: And the food intake ([9]; female, trend of increase in food intake)?
Answer: Its food intake is “not observed”.

Question: And the food intake ([9]; male)?
Answer: Its food intake is “an increase in food intake was observed”.

Question: And the “average RER” value ([10]; female, 2.5 nmol ICV, both dark and light cycles, p<0.01)?
Answer: Its value is “significantly increased”.

Question: And the RER ([10]; female, 7.5 nmol ICV)?
Answer: The RER was “no effect”.

Question: What about the RER ([10]; male, 2.5 nmol ICV) of the same substance?
Answer: The RER was “minimal effect”.

Question: What about the “hourly RER” value ([10]; male, 7.5 nmol ICV, early light cycle 15–18 hrs post-administration) of the same substance?
Answer: The value was “significantly increased”.

Question: What about the “total average RER” value ([10]; male, 7.5 nmol ICV, entire light cycle (14–26 hrs)) of the same substance?
Answer: The value was “No significant effect”.

Question: What about the “total average RER” value ([10]; male, 7.5 nmol ICV, first dark cycle (0–14 hrs), p<0.01) of the same substance?
Answer: Its value is “increased”.

Question: And the “total average RER” value ([10]; male, 7.5 nmol ICV, first two hours following injection, p<0.01)?
Answer: Its value is “increased”.

Question: And the “hourly RER” value ([10]; male, 7.5 nmol ICV, individual time points 2–7 and 10–14 hours)?
Answer: Its value is “increased”.

Question: What about the energy expenditure ([11]; female, 2.5 nmol ICV, p<0.001, observed at 5, 6, 15, 21, and 22 hours) of the same substance?
Answer: The energy expenditure was “significant increase in energy expenditure”.

Question: What about the “total calories burned in 24 hours” value ([11]; female, 7.5 nmol ICV, p<0.05) of the same substance?
Answer: The value was “significant decrease in total calories burned”.

Question: And the “energy expenditure (trend)” value ([11]; male, 7.5 nmol ICV)?
Answer: The value was “trended towards decreasing energy expenditure”.

Question: What about the “hourly energy expenditure normalized to weight (Kcal/hr/kg)” value ([11]; male, 7.5 nmol ICV, at 4, 20, 21, 23 and 24 hours, compared to control) of the same substance?
Answer: The value was “decrease in energy expenditure”.

Question: And the “total calories spent in 24 hours” value ([11]; male, ICV)?
Answer: Its value is “no effect”.

Question: What about the energy expenditure ([11]; male, doses lower than 7.5 nmol ICV) of the same substance?
Answer: Its energy expenditure is “No significant effect”.

Question: And the hourly activity ([12]; female, 2.5 nmol ICV, 5 hours post administration)?
Answer: Its hourly activity is “Increased activity”.

Question: What about the hourly activity ([12]; female, 2.5 nmol ICV, 24 hours post administration) of the same substance?
Answer: The hourly activity was “significant decrease in activity”.

Question: And the total activity ([12]; female, 5 nmol ICV, light cycle, p<0.05)?
Answer: Its total activity is “significant decrease in total activity”.

Question: And the total activity ([12]; female, other doses ICV, dark cycle (0–14 hrs), p=0.28)?
Answer: Its total activity is “no other doses resulted in a significant changes in total activity”.

Question: What about the total activity ([12]; female, other doses ICV, light cycle (14–26 hrs), p=0.65) of the same substance?
Answer: The total activity was “no other doses resulted in a significant changes in total activity”.

Question: And the hourly activity ([12]; male, 7.5 nmol ICV, time points 8, 15, 18, and 24 hours)?
Answer: Its hourly activity is “significant increases in activity”.

Question: And the “total ambulatory activity (cumulative beam breaks)” value ([12]; male, dark cycle (0–14 hrs), p=0.39)?
Answer: The value was “no significant effect”.

Question: What about the “total ambulatory activity (cumulative beam breaks)” value ([12]; male, light cycle (14–26 hrs), p=0.64) of the same substance?
Answer: Its value is “no significant effect”.

Question: What about the solubility in saline ([13]; added to saline alone) of the same substance?
Answer: The solubility in saline was “precipitated out”.

Question: And the “solubility limit on dosing” value ([13]; doses above 7.5 nmol ICV, male mice)?
Answer: Its value is “higher dosing was prevented due to the solubility”.

Question: And the “pA2 at mMC3R” value ([1]; Schild analysis, antagonist, ref [22],[23] (Doering et. al.))?
Answer: Its value is 5.43±0.16.

Question: What about the “agonist activity at mMC3R” value ([1]; up to 100 µM, ref [22],[23] (Doering et. al.)) of the same substance?
Answer: Its value is “minimal agonist activity; also recorded: lacks the mMC3R partial agonism”.

Question: And the “pA2 at mMC4R” value ([14]; Schild analysis, antagonist)?
Answer: The value was 7.83 and 7.83±0.16.

Question: And the “agonist activity at mMC4R” value ([14]; up to 100 µM)?
Answer: The value was “minimal agonist activity”.

Question: And the EC50 [15]?
Answer: The EC50 was 2000 ± 600 nM.

Question: And the EC50 [16]?
Answer: The EC50 was 2800 ± 1100 nM.

Question: With MTII as the substance, how does the “sex difference in food intake effect” value ([7]; MC3R and MC4R knockout mice, same genotype, ref [15],[16]) read?
Answer: The value was “no differences reported between male and female mice”.

Question: And the food intake ([7]; MC3R and MC4R knockout mice, ref [15],[16])?
Answer: Its food intake is “decrease food intake”.
